Assay [1] addresses Cyclin-dependent kinase 2 (Homo sapiens, UniProt P24941). In words: Inhibition of Cyclin-dependent kinase 2 enzyme from starfish oocytes. The arrangement: species or system Marthasterias glacialis, Oocyte.
The subject of the next assay is NCI. In words: cells. Conditions: Homo sapiens, read-out: Mean GI50.
Assay [2] has as its target Cyclin-dependent kinase 1/cyclin B (Homo sapiens, UniProt O95067+P06493+P14635+Q8WWL7). Description: Inhibition of Cyclin-dependent kinase 1 enzyme from starfish oocytes. Further details: species or system Marthasterias glacialis, Oocyte.

This is an account of results in ChEMBL document CHEMBL1133452, “Identification of novel purine and pyrimidine cyclin-dependent kinase inhibitors with distinct molecular interactions and tumor cell growth inhibition profiles” (J Med Chem, 2000).

The structures appear in SMILES notation.

Sequence of Cyclin-dependent kinase 1/cyclin B (P06493 whole entry): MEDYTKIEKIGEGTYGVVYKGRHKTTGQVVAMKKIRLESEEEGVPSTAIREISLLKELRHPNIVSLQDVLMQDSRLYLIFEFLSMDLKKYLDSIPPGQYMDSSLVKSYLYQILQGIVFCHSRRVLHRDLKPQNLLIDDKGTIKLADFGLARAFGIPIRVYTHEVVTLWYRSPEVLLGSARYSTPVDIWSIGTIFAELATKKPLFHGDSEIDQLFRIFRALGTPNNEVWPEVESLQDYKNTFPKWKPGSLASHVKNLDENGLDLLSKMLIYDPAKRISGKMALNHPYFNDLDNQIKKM
Sequence of Cyclin-dependent kinase 1/cyclin B (P14635 whole entry): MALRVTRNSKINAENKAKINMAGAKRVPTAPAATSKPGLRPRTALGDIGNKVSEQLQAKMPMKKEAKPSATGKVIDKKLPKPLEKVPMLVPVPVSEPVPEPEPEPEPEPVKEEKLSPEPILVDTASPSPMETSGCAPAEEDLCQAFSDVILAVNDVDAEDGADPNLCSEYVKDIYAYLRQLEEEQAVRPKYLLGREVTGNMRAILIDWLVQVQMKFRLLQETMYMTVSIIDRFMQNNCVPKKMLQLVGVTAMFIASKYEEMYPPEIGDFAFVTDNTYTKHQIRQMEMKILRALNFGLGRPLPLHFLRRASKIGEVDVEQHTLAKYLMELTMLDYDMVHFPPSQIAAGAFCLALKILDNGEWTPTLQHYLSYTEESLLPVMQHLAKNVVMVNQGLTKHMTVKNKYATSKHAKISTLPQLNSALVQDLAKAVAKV
Sequence of Cyclin-dependent kinase 1/cyclin B (Q8WWL7 whole entry): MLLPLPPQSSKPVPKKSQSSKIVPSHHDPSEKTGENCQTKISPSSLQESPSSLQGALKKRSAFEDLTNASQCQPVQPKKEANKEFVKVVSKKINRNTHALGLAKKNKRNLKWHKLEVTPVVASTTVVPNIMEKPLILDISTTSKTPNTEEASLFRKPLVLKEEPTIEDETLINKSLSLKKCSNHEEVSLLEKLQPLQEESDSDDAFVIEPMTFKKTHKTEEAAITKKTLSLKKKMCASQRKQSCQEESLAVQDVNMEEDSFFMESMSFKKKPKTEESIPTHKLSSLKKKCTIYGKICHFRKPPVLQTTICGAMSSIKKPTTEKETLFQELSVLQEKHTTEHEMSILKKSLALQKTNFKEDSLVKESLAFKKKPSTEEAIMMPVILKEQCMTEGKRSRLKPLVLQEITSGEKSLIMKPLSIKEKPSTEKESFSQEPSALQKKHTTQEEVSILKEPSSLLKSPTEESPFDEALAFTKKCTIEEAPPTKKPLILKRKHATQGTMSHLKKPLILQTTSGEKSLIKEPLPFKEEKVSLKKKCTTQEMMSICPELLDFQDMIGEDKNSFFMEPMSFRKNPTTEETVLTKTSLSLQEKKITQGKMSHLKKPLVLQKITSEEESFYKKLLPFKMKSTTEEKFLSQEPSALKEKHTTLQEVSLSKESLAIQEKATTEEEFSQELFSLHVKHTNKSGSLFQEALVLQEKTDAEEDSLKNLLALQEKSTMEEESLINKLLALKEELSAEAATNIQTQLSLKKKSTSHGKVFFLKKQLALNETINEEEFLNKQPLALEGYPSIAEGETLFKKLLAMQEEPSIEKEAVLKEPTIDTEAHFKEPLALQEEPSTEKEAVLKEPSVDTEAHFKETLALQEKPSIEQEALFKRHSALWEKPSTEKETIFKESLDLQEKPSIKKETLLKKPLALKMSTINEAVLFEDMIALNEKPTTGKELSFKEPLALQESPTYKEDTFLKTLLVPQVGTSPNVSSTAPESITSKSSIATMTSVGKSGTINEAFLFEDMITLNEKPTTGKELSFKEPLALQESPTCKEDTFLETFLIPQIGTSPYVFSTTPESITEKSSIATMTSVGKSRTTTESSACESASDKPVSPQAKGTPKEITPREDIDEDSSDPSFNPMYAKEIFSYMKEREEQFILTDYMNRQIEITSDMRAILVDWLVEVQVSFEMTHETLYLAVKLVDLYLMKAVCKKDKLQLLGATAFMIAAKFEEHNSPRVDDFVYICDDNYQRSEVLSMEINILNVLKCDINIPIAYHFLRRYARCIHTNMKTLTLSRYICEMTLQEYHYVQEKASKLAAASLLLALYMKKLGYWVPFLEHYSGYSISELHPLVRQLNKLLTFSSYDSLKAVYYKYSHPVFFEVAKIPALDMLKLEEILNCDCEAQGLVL
Sequence of Cyclin-dependent kinase 1/cyclin B (O95067 whole entry): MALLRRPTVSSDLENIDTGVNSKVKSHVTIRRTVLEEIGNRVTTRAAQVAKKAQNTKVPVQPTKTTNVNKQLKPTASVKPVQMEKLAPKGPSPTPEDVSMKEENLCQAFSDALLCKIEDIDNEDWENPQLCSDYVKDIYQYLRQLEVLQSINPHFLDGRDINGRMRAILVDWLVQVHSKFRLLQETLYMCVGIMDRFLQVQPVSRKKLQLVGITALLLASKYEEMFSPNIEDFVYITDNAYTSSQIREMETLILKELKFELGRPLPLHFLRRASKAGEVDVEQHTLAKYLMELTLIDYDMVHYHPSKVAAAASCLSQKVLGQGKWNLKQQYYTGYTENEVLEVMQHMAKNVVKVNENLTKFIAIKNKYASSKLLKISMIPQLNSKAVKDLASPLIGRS
Description for NCI: Inhibition of NCI cell line proliferation

`Cn1cnc2c(OCC3CCCCC3)nc(N)nc21` had an IC50 in assay [1] of more than 100 µM. In addition, in the assay on NCI, the GI50 is more than 100 µM.
For the compound `Nc1cc(OCC2CCCCC2)nc(N)n1`, the IC50 in assay [2] and in assay [1] was more than 10 µM each time. In addition, the concentration for 50% growth inhibition (GI50) in the assay with NCI is more than 100 µM.
`c1nc(OCC2CCCCC2)c2nc[nH]c2n1` yielded an IC50 in assay [1] of 13 µM. In the assay on NCI, the GI50 worked out at 55 µM.

For orientation: IC50 means the concentration that gives 50% inhibition. For orientation: GI50 means the concentration that inhibits growth by half.
